Test results taken from patent US20250127804A1, “RIBOSE LINKERS AND CONJUGATES THEREOF” (ELYSIUM HEALTH INC., priority 2022, published 2025).
Where “and” joins values, the source holds several entries; their conditions need not be identical. Identical values can stand only once. Entries after “also recorded” stand apart in the source; their conditions may differ. Like-named read-outs stand apart in the source and are kept apart here.

Assays:
[1] = test system: purine nucleoside phosphorylase (PNP); assay: PNP enzyme activity assay (release of NAM monitored by 1H NMR); format: in vitro ADME; settings: for stability to PNP (in words): triflates dissolved in DMSO; for ester hydrolysis / deprotection observed during PNP incubation: over time; for overall trend of stability of NR esters to PNP: rank order
Procedure: To ensure that the stability rather than the solubility could be investigated, both the triflate and the chloride form of NRLR (“NRLR-OTf” and “NRLR-Cl”, respectively) were tested for their stability in aqueous buffers and as substrates of the enzyme purine nucleoside phosphorylase (PNP). The release of nicotinamide (NAM) was measured, which is indicative of water-catalyzed hydrolysis. Further, the release of ribose vs. phosphoriboside was monitored, which is indicative of PNP activity. Loss of esters via hydrolysis in buffer catalyzed condition also occurs over time. Once the C5-hydroxyl is free, PNP recognizes the nucleoside and catalyze phosphorolysis. It is not known whether this hydrolysis must occur for all the esters before PNP can act on the nucleoside. The scheme below illustrates the reaction with a partially deprotected nucleoside.
Phosphorolysis of NRCl by PNP (Sigma Aldrich) was performed in HEPES buffer, containing KH2PO4 and 10% D2O at 25° C. and was monitored by 1H NMR.
Incubations were conducted in the NMR tube which contained a final volume of 505 μl including 450 μl HEPES buffer (100.0 mM, pH 7.0), containing 100 mM KH2PO4, 50.0 μl NRCl (100.0 mM in 1 mL D2O) and when appropriate 5 μl PNP (1 mg dissolved in 50 μl HEPES buffer) was added and measurements were taken at t=5 min and 15 min.
Similarly, PNP study of NRAD-triflate was conducted in DMSO.

[2] = Octanol-water partition coefficient (Pow) by 1H NMR; format: physicochemical
Procedure: The experiment was performed as described in “Measuring Lipophilicity with NMR,” SpinSolve Carbon®, MagriTek (2014). Briefly, ^1H NMR spectra were recorded for NRLR-Cl in D2O, then an equivalent volume of 1-octanol was added to the same NMR tube, and the ^1H NMR was recorded again. The measurements were performed in triplicate. The Pow was calculated based on the concentrations of the NRLR-Cl in the D2O layer and in the octanol layer, as determined based on the NMR peak values. The average measured log POW of NRLR-Cl is 1.816.

[3] = Solubility in water; format: physicochemical
[4] = test system: enhanced lipase (Candida rugens); assay: Lipase assay; format: in vitro ADME
Procedure: NRLR was subjected to a lipase assay in 10% DMSO, 450 μL HEPES buffer, and enhanced lipase (Candida rugens).

[5] = 1-octanol/D2O, single experiment, listed as NRLR-CI

| Compound | stability to PNP (in words) ([1]; 1H NMR) | ester hydrolysis / deprotection observed during PNP incubation ([1]; 1H NMR) | overall trend of stability of NR esters to PNP [1] | remaining NR diester peaks ([1]; PNP, after 2 days (FIG. 40B)) | solubility in water [3] | also measured |
| --- | --- | --- | --- | --- | --- | --- |
| CC(=O)OC[C@H]1O[C@@H]([n+]2cccc(C(N)=O)c2)[C@H](OC(C)=O)[C@@H]1OC(C)=O [NRTA, NR triacetate, reference compound] | stable to PNP; also recorded: more stable to PNP than NRCL | Slow partial ester hydrolysis | NRTA>NRAD>NRML>NRLR>NRCl |  |  | hydrolysis and NAM release with PNP ([1]; after 24 hours): very slowly hydrolyzed and releases NAM |
| CC(=O)O[C@@H]1[C@H](OC(C)=O)[C@@H](COC(=O)CC(=O)OC[C@H]2O[C@@H]([n+]3cccc(C(N)=O)c3)[C@H](OC(C)=O)[C@@H]2OC(C)=O)O[C@H]1[n+]1cccc(C(N)=O)c1 [compound 8a, NR malonate] | less stable compared to NR adipate |  | NRTA>NRAD>NRML>NRLR>NRCl | still showed some NR diester peaks |  |  |
| CCCCCCCCCCCC(=O)OC[C@H]1O[C@@H]([n+]2cccc(C(N)=O)c2)[C@H](OC(C)=O)[C@@H]1OC(C)=O [NRLR-Cl, NRLR-Chloride] |  |  |  |  | soluble in water | Average (LogPow) ([2]; 1-octanol/D2O, average of triplicate): 1.816; logP ([2]; 1-octanol/D2O, average of triplicate, read-out: Average (LogPow)): 1.82; LogPow [2, 5]: 1.89 and 1.80 and 1.76; Pow [2, 5]: 78.66 and 63.33 and 58.88; Peak values in water layer ([2]; 1H NMR in D2O before octanol addition, listed as NRLR-CI): 0.0478 and 0.0386 and 0.0539; Peak values after octanol addition ([2]; 1H NMR, D2O layer after equivalent volume of 1-octanol, listed as NRLR-CI): 0.0006 and 0.0009 |
| NC(=O)c1ccc[n+]([C@@H]2O[C@H](CO)[C@@H](O)[C@H]2O)c1 [NRCl, Nicotinamide riboside, reference compound] | least stable to PNP enzyme |  | NRTA>NRAD>NRML>NRLR>NRCl |  |  | time to complete conversion/degradation to NAM after PNP addition ([1]; HEPES buffer pH 7.0, KH2PO4, 10% D2O, 25° C., 1H NMR, listed as NR): ≤ 5 min |
| CC(=O)O[C@@H]1[C@H](OC(C)=O)[C@@H](COC(=O)CCCCC(=O)OC[C@H]2O[C@@H]([n+]3cccc(C(N)=O)c3)[C@H](OC(C)=O)[C@@H]2OC(C)=O)O[C@H]1[n+]1cccc(C(N)=O)c1 [compound 8d, NR adipate] | appears stable to PNP | ester dimer appeared to remain intact | NRTA>NRAD>NRML>NRLR>NRCl | still showed some NR diester peaks |  |  |
| NR-laurate (NRLR) triflate [compound 8g] | less stable compared to NR adipate | partial deprotection of the esters over time | NRTA>NRAD>NRML>NRLR>NRCl |  | not completely soluble in water | increase in NAM ([1]; PNP, after 1 day (FIG. 40A)): 30%; degraded to NAM ([1]; PNP, after 2 days (FIG. 40B)): ~90%; overall increase in NAM ([1]; PNP, over 24 hours): 17%; solubility in water ([3]; listed as NRLR-OTf): is not; partial loss of one ester [4]: < 5%; effect of increased concentration of lipase ([4]; over 12 hours of incubation): no effect |
